Where two headings read alike, the source gives them in different places.
Tests used:
Assay in all cases: Kinase panel
Format in all cases: biochemical
PKCETA = PKCETA (Homo sapiens, UniProt P24723); conditions: read-out: residual enzyme activity
Method in brief: (§1)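 1 µM, one concentration only, biochemical panel format. Residual activity computed per kinase; threshold for identification: residual ≤40%.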

GRK7 = GRK7 (Homo sapiens, UniProt Q8WTQ7); conditions: GRK7, 1 µM; read-out: residual enzyme activity
Method in brief: as §1

ALK3/BMPR1A = ALK3/BMPR1A (Homo sapiens, UniProt P36894); conditions: read-out: residual enzyme activity
Method in brief: as §1

RET = RET (Homo sapiens, UniProt P07949); conditions: read-out: residual enzyme activity
Method in brief: as §1

CDK2/CYCLIN E2 = CDK2/CYCLIN E2 (Homo sapiens, UniProt P24941); conditions: CDK2/cyclin E2, 1 µM; read-out: residual enzyme activity
Method in brief: as §1

CDK3/CYCLIN E = CDK3/CYCLIN E (Homo sapiens, UniProt Q00526); conditions: read-out: residual enzyme activity
Method in brief: as §1

IKKE/IKBKE = IKKE/IKBKE (Homo sapiens, UniProt Q14164); conditions: read-out: residual enzyme activity
Method in brief: as §1

SIK3 = SIK3 (Homo sapiens, UniProt Q9Y2K2); conditions: SIK3, 1 µM; read-out: residual enzyme activity
Method in brief: as §1

RSK4 = RSK4 (Homo sapiens, UniProt Q9UK32); conditions: RSK4, 1 µM; read-out: residual enzyme activity
Method in brief: as §1

LYN B = LYN B (Homo sapiens, UniProt P07948); conditions: read-out: residual enzyme activity
Method in brief: as §1

MEKK2 = MEKK2 (Homo sapiens, UniProt Q9Y2U5); conditions: MEKK2, 1 µM; read-out: residual enzyme activity
Method in brief: as §1

RSK3 = RSK3 (Homo sapiens, UniProt Q15349); conditions: RSK3, 1 µM; read-out: residual enzyme activity
Method in brief: as §1

MAST3 = MAST3 (Homo sapiens, UniProt O60307); conditions: MAST3, 1 µM; read-out: residual enzyme activity
Method in brief: as §1

MLK2/MAP3K10 = MLK2/MAP3K10 (Homo sapiens, UniProt Q02779); conditions: MLK2/MAP3K10, 1 µM; read-out: residual enzyme activity
Method in brief: as §1

JAK1 = JAK1 (Homo sapiens, UniProt P23458); conditions: JAK1, 1 µM; read-out: residual enzyme activity
Method in brief: as §1

P70S6KB/RPS6KB2 = P70S6KB/RPS6KB2 (Homo sapiens, UniProt Q9UBS0); conditions: read-out: residual enzyme activity
Method in brief: as §1

SIK2 = SIK2 (Homo sapiens, UniProt Q9H0K1); conditions: SIK2, 1 µM; read-out: residual enzyme activity
Method in brief: as §1

LOK/STK10 = LOK/STK10 (Homo sapiens, UniProt O94804); conditions: LOK/STK10, 1 µM; read-out: residual enzyme activity
Method in brief: as §1

TRKC = TRKC (Homo sapiens, UniProt Q16288); conditions: read-out: residual enzyme activity
Method in brief: as §1

ALK1/ACVRL1 = ALK1/ACVRL1 (Homo sapiens, UniProt P37023); conditions: ALK1/ACVRL1, 1 µM; read-out: residual enzyme activity
Method in brief: as §1

NIM1 = NIM1 (Homo sapiens, UniProt Q8IY84); conditions: NIM1, 1 µM; read-out: residual enzyme activity
Method in brief: as §1

ERK5/MAPK7 = ERK5/MAPK7 (Homo sapiens, UniProt Q13164); conditions: ERK5/MAPK7, 1 µM; read-out: residual enzyme activity
Method in brief: as §1

CDK6/CYCLIN D3 = CDK6/CYCLIN D3 (Homo sapiens, UniProt Q00534); conditions: CDK6/cyclin D3, 1 µM; read-out: residual enzyme activity
Method in brief: as §1

HASPIN = HASPIN (Homo sapiens, UniProt Q8TF76); conditions: read-out: residual enzyme activity
Method in brief: as §1

TESK1 = TESK1 (Homo sapiens, UniProt Q15569); conditions: TESK1, 1 µM; read-out: residual enzyme activity
Method in brief: as §1

MST1/STK4 = MST1/STK4 (Homo sapiens, UniProt Q13043); conditions: MST1/STK4, 1 µM; read-out: residual enzyme activity
Method in brief: as §1

PAK1 = PAK1 (Homo sapiens, UniProt Q13153); conditions: PAK1, 1 µM; read-out: residual enzyme activity
Method in brief: as §1

ERBB2/HER2 = ERBB2/HER2 (Homo sapiens, UniProt P04626); conditions: ERBB2/HER2, 1 µM; read-out: residual enzyme activity
Method in brief: as §1

ARK5/NUAK1 = ARK5/NUAK1 (Homo sapiens, UniProt O60285); conditions: read-out: residual enzyme activity
Method in brief: as §1

CDK3/CYCLIN E2 = CDK3/CYCLIN E2 (Homo sapiens, UniProt Q00526); conditions: CDK3/cyclin E2, 1 µM; read-out: residual enzyme activity
Method in brief: as §1

AKT2 = AKT2 (Homo sapiens, UniProt P31751); conditions: AKT2, 1 µM; read-out: residual enzyme activity
Method in brief: as §1

NEK1 = NEK1 (Homo sapiens, UniProt Q96PY6); conditions: NEK1, 1 µM; read-out: residual enzyme activity
Method in brief: as §1

RON/MSTIR = RON/MSTIR (Homo sapiens, UniProt Q04912); conditions: read-out: residual enzyme activity
Method in brief: as §1

Chain of JAK1 (P23458 whole entry, species assumed): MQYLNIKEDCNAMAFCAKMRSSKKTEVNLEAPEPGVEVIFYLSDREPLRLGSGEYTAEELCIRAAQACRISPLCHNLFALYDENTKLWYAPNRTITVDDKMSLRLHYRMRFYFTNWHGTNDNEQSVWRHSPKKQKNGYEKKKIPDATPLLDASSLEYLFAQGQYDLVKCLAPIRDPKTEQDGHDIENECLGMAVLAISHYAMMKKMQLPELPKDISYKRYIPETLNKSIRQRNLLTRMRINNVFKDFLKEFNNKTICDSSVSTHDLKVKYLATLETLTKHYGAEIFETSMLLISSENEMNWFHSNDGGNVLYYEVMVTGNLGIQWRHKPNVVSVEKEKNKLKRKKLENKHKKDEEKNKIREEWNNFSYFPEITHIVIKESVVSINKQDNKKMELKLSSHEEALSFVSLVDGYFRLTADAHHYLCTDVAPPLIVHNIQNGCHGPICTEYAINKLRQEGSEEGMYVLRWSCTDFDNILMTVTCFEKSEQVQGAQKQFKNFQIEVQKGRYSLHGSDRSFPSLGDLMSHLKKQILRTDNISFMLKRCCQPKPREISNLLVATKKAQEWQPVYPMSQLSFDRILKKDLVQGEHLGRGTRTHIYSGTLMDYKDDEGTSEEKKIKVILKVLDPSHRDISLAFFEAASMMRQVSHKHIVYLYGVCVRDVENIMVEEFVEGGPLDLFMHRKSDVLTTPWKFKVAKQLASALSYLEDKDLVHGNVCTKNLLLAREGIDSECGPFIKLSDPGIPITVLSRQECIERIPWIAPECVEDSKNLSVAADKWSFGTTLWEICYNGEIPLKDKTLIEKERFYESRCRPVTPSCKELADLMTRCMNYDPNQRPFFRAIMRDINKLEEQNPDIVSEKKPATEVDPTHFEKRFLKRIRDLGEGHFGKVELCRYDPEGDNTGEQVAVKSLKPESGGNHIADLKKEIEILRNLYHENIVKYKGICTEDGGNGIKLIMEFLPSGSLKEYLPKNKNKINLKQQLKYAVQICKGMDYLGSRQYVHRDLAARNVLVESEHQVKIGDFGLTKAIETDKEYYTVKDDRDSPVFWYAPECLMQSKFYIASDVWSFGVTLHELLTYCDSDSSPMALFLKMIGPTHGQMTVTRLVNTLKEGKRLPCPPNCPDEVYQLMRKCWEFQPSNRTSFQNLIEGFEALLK
Chain of TESK1 (Q15569 whole entry, species assumed): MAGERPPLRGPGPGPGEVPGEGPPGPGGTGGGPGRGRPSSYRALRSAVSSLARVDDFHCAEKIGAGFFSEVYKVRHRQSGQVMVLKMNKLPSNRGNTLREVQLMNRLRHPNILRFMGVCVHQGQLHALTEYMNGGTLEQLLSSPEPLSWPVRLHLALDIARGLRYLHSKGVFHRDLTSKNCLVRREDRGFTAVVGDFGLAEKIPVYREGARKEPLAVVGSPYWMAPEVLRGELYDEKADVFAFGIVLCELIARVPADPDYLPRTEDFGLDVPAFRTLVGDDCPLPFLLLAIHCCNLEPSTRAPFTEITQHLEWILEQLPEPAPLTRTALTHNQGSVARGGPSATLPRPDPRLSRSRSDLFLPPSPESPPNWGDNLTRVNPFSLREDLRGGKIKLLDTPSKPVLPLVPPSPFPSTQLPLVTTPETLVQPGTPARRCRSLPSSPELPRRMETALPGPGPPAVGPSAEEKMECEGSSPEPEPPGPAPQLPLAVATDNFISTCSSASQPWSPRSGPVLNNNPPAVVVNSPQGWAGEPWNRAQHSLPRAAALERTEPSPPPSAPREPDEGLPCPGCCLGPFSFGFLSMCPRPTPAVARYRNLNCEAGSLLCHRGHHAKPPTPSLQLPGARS
Chain of MLK2/MAP3K10 (Q02779 whole entry): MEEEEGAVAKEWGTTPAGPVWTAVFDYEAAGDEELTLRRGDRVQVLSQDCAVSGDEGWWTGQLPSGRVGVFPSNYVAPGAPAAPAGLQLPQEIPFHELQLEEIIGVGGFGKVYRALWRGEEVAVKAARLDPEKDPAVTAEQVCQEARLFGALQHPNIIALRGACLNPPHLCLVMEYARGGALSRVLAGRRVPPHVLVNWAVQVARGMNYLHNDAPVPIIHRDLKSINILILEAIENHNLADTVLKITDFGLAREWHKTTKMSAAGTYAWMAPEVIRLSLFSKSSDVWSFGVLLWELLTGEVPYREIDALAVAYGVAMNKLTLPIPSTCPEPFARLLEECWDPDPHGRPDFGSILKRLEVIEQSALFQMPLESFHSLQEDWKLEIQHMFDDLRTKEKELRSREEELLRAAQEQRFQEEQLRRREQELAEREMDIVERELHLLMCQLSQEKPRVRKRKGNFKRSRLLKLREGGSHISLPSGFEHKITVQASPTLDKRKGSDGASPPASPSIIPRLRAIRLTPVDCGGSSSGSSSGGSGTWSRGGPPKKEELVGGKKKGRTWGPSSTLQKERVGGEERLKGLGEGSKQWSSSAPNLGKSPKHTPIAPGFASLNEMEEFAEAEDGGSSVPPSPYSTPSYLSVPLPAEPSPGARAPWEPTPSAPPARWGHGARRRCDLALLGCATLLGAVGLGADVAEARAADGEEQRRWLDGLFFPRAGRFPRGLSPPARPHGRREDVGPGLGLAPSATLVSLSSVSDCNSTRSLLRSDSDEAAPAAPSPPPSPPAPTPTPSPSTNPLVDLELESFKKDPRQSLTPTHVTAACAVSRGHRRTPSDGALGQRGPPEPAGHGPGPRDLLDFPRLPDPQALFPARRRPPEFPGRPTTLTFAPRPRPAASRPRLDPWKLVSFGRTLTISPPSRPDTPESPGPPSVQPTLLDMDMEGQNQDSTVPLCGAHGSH
Chain of PAK1 (Q13153 whole entry): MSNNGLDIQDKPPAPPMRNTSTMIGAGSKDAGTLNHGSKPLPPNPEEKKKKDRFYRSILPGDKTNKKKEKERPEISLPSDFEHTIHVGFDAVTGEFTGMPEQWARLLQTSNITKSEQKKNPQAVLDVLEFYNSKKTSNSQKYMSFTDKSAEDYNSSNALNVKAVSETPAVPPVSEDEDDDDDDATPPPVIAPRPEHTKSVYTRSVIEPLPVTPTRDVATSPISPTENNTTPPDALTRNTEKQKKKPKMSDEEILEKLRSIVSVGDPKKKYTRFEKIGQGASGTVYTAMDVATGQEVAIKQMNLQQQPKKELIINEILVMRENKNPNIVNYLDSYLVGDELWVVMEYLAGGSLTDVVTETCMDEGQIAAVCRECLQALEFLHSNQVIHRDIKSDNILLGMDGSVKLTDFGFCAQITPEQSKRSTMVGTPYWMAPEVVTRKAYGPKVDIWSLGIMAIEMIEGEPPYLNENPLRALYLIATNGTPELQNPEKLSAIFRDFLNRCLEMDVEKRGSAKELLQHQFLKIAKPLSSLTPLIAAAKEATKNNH
Chain of LYN B (P07948 1-491 isoform P07948-2, species assumed): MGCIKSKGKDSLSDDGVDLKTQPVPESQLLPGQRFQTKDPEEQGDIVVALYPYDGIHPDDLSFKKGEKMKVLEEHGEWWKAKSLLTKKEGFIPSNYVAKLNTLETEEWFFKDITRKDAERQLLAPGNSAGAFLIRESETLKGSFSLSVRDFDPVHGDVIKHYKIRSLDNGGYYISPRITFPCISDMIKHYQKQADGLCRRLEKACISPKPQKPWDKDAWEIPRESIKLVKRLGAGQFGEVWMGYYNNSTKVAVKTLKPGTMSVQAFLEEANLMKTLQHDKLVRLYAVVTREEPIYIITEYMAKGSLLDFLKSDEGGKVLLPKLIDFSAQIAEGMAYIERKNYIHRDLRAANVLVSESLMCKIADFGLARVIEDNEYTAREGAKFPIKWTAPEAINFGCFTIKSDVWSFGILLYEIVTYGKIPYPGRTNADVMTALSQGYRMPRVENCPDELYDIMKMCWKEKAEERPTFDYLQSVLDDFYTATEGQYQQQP
Chain of ARK5/NUAK1 (O60285 whole entry): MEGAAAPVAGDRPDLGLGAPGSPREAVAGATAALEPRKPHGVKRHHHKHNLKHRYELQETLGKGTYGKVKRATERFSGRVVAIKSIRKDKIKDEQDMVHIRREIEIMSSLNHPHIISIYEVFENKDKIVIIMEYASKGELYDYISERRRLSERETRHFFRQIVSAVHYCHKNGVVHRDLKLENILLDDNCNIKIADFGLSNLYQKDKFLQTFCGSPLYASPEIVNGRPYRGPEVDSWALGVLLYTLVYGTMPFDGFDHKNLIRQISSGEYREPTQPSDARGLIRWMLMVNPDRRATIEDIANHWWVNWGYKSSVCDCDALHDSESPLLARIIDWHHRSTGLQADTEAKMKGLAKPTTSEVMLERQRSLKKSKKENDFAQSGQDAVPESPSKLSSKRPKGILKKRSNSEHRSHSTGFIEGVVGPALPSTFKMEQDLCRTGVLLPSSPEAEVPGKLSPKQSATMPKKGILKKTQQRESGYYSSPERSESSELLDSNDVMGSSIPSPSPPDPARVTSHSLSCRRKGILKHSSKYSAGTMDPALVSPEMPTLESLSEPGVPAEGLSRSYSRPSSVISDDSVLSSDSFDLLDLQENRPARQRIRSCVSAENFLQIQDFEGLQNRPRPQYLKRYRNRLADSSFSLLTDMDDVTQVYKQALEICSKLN
Chain of MEKK2 (Q9Y2U5 whole entry, species assumed): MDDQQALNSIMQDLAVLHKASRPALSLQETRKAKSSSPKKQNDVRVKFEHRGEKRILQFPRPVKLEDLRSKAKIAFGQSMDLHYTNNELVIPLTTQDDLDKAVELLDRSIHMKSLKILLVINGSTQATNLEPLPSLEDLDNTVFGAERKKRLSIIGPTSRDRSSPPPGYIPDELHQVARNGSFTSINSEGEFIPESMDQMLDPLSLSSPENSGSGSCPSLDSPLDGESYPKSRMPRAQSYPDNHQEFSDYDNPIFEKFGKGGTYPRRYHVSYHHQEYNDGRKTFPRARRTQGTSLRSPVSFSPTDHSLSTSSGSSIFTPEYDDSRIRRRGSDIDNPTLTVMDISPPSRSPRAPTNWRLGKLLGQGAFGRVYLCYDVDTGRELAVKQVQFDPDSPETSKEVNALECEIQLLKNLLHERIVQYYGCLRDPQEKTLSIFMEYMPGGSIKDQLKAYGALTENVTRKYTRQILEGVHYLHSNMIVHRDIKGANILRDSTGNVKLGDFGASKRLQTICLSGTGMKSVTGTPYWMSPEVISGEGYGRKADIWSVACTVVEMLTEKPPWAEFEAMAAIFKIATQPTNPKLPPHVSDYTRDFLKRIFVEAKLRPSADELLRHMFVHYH

Row | Compound | remaining activity at 1 µM (PKCETA) [%] | remaining activity at 1 µM (GRK7) [%] | remaining activity at 1 µM (ALK3/BMPR1A) [%] | remaining activity at 1 µM (RET) [%] | remaining activity at 1 µM (CDK2/CYCLIN E2) [%] | remaining activity at 1 µM (CDK3/CYCLIN E) [%] | remaining activity at 1 µM (IKKE/IKBKE) [%] | remaining activity at 1 µM (SIK3) [%] | remaining activity at 1 µM (RSK4) [%] | remaining activity at 1 µM (LYN B) [%] | remaining activity at 1 µM (MEKK2) [%] | remaining activity at 1 µM (RSK3) [%] | remaining activity at 1 µM (MAST3) [%] | remaining activity at 1 µM (MLK2/MAP3K10) [%] | remaining activity at 1 µM (JAK1) [%] | remaining activity at 1 µM (SIK2) [%] | remaining activity at 1 µM (LOK/STK10) [%] | remaining activity at 1 µM (TRKC) [%] | remaining activity at 1 µM (ALK1/ACVRL1) [%] | remaining activity at 1 µM (NIM1) [%] | also measured
1 | Cc1cn(-c2cc(C(=O)Nc3ccc(C)c(N4Cc5cnc(NC6CC6)nc5C5(CC5)C4=O)c3)cc(C(F)(F)F)c2)cn1 [Compound 8, N-(3-(2'-(cyclopropylamino)-7'-oxo-5'H-spiro[cyclopropane-1,8'-pyrido[4,3-d]pyrimidine]-6'(7'H)-yl)-4-methylphenyl)-3-(4-methyl-1H-imidazol-1-yl)-5-(trifluoromethyl)benzamide] | > 40 | > 40 | > 40 | ≤ 40 | > 40 | > 40 | > 40 | ≤ 40 | > 40 | ≤ 40 | ≤ 40 | > 40 | > 40 | > 40 | ≤ 40 | > 40 | ≤ 40 | ≤ 40 | > 40 | > 40 | remaining activity at 1 µM (P70S6KB/RPS6KB2; P70S6KB/RPS6KB2, 1 µM): > 40%; remaining activity at 1 µM (ERK5/MAPK7): > 40%; remaining activity at 1 µM (CDK6/CYCLIN D3): > 40%; remaining activity at 1 µM (HASPIN): > 40%; remaining activity at 1 µM (TESK1): ≤ 40%; remaining activity at 1 µM (MST1/STK4): > 40%; remaining activity at 1 µM (PAK1): > 40%; remaining activity at 1 µM (ERBB2/HER2): ≤ 40%; remaining activity at 1 µM (ARK5/NUAK1; ARK5/NUAK1, 1 µM): > 40%; remaining activity at 1 µM (CDK3/CYCLIN E2): > 40%; remaining activity at 1 µM (AKT2): > 40%; remaining activity at 1 µM (NEK1): > 40%; remaining activity at 1 µM (RON/MSTIR): > 40%
2 | Cc1ccc(Nc2ncc3c(n2)C2(CC2)C(=O)N(c2cc(NC(=O)c4cccc(C(F)(F)F)c4)ccc2C)C3)cn1 [Compound 51, N-(4-methyl-3-(2'-((6-methylpyridin-3-yl)amino)-7'-oxo-5'H-spiro[cyclopropane-1,8'-pyrido[4,3-d]pyrimidine]-6'(7'H)-yl)phenyl)-3-(trifluoromethyl)benzamide] | > 40 | > 40 | > 40 | ≤ 40 | > 40 | > 40 | > 40 | ≤ 40 | > 40 | ≤ 40 | ≤ 40 | > 40 | > 40 | ≤ 40 | ≤ 40 | ≤ 40 | ≤ 40 | ≤ 40 | > 40 | > 40 | remaining activity at 1 µM (P70S6KB/RPS6KB2; p70S6Kb/RPS6KB2, 1 µM): > 40%; remaining activity at 1 µM (ERK5/MAPK7): > 40%; remaining activity at 1 µM (CDK6/CYCLIN D3): > 40%; remaining activity at 1 µM (HASPIN): > 40%; remaining activity at 1 µM (TESK1): ≤ 40%; remaining activity at 1 µM (MST1/STK4): > 40%; remaining activity at 1 µM (PAK1): > 40%; remaining activity at 1 µM (ERBB2/HER2): ≤ 40%; remaining activity at 1 µM (ARK5/NUAK1; ARKS/NUAKl, 1 µM): > 40%; remaining activity at 1 µM (CDK3/CYCLIN E2): > 40%; remaining activity at 1 µM (AKT2): > 40%; remaining activity at 1 µM (NEK1): > 40%; remaining activity at 1 µM (RON/MSTIR): > 40%

From EP4722212A1, “NOVEL COMPOUND FOR INHIBITING PROTEIN KINASES AND PHARMACEUTICAL COMPOSITION COMPRISING SAME” (Magicbullettherapeutics Co., Ltd., priority 2023, dated 2024)
